Measurements published in patent publication US8188273B2, “Insecticidal (1,3,5)-triazinyl phenyl hydrazones” (Dow AgroSciences, LLC., priority 2007, dated 2012).
Where two headings read alike, the source gives them in different places.

Tests used:
[1] = system: corn earworm (Helicoverpa zea); assay: Insecticidal test on treated lepidopteran diet, corn earworm; type: in vivo; conditions: 120 h, read-out: AVG HELIZE 50 (percent control, corn ear worm)
Method: (§1) The compounds identified in Table 1 were prepared according to the previous methods and were tested against beet armyworm and corn earworm as follows:
(§2) Insecticidal Test for Corn Earworm (Helicoverpa zea) and Beet Armyworm (Spodoptera exigua).
(§3) To prepare test solution, the test compound was formulated at 2000 ppm solution as 4 mg/2 mL of 9 acetone:1 tap water. 50 μL of the 2000 ppm (equivalent to 50 μg/cm^2 dose on diet surface area) test solution was pipetted upon the surface of 1 mL of lepidopteran diet (Southland Multi-Species Lepidopteran Diet) contained in each of eight wells per insect species (one well=1 replication). A second-instar corn earworm and beet armyworm was placed upon the treated diet in each well once the solvent had air-dried. Trays containing the treated diet and larvae were covered and then held in a growth chamber at 25° C., 50-55% RH, and 16 hr light:8 hr dark for 5 days. Observation were conducted 5 days after treatment and infestation. The number of dead insects of 8 per species per treatment was then determined and the results are given in Table 1 as a percent control at a dose of […].
(§4) Keys to the table: Mass spectral data were obtained using liquid chromatography mass spectroscopy (LC-MS). The masses are detected using electrospray ionization (ESI) and reported as Mol Ion (M+H, M−H); AVG LAPHEG 50 refers to activity against beet army worm (Spodoptera exigua) as defined above; AVG HELIZE 50 refers to activity against corn ear worm (Helicoverpa zea) as described above.

[2] = system: beet armyworm (Spodoptera exigua); assay: Insecticidal test on treated lepidopteran diet, beet armyworm; type: in vivo; conditions: 120 h, read-out: AVG LAPHEG 50 (percent control, beet army worm)
Method: as §1, §2, §3, §4

[3] = second-instar larvae on treated diet, 8 wells, dose of 50 mg/cm^2 [sic] (2000 ppm, 50 μL), dead insects counted 5 days after treatment

Structure (SMILES)	pest or weed control at 2000 µg/mL [1, 3]	pest or weed control at 2000 µg/mL [2, 3]	pest or weed control at 2000 µg/mL [1]	pest or weed control at 2000 µg/mL [2]
FC(F)C(F)(F)Oc1cccc(Nc2nc(NCc3ccc(Cl)nc3)nc(N/N=C/c3ccc(Cl)cc3)n2)c1 [Compound 86]	100%	100%	–	–
FC(F)C(F)(F)Oc1ccc(Nc2nc(NCc3ccc(Cl)nc3)nc(N/N=C/c3ccc(Cl)cc3)n2)cc1 [Compound 87]	100%	100%	–	–
Fc1ccc(Nc2nc(Cl)nc(N/N=C/c3ccc(OC(F)(F)F)cc3)n2)cc1C(F)(F)F [Compound 88]	100%	100%	–	–
FC(F)C(F)(F)Oc1ccc(Nc2nc(N/N=C/c3ccc(Cl)c(Cl)c3)nc(N3CCOCC3)n2)cc1 [Compound 89]	100%	100%	–	–
FC(F)C(F)(F)Oc1ccc(Nc2nc(NCc3ccc(Cl)nc3)nc(N/N=C/c3ccc(C(F)(F)F)cc3)n2)cc1 [Compound 93]	100%	100%	–	–
FC(F)C(F)(F)Oc1ccc(Nc2nc(NCc3ccc(Cl)nc3)nc(N/N=C/c3ccc(Cl)c(Cl)c3)n2)cc1 [Compound 94]	100%	100%	–	–
FCCOc1ccc(/C=N/Nc2nc(NCc3ccc(Cl)nc3)nc(Nc3ccc(F)c(C(F)(F)F)c3)n2)cc1 [Compound 95]	–	–	38%	75%
N#Cc1ccc(/C=N/Nc2nc(NCc3ccc(Cl)nc3)nc(Nc3ccc(OC(F)(F)C(F)F)cc3)n2)cc1 [Compound 96]	100%	100%	–	–
Fc1ccc(Nc2ncnc(N/N=C/c3ccc(OC(F)(F)C(F)F)cc3)n2)cc1C(F)(F)F [Compound 97]	100%	100%	–	–
FC(F)(F)COc1nc(N/N=C/c2ccc(Br)cc2)nc(Nc2ccc(OC(F)(F)F)cc2)n1 [Compound 98]	100%	100%	–	–
FC(F)C(F)(F)Oc1ccc(/C=N/Nc2ncnc(Nc3cccc(C(F)(F)F)c3)n2)cc1 [Compound 100]	100%	100%	–	–
FC(F)(F)Oc1ccc(/C=N/Nc2ncnc(Nc3cccc(C(F)(F)F)c3)n2)cc1 [Compound 101]	100%	100%	–	–
Fc1ccc(Nc2ncnc(N/N=C/c3cccc(C(F)(F)F)c3)n2)cc1C(F)(F)F [Compound 102]	100%	100%	–	–
FC(F)(F)c1cccc(/C=N/Nc2ncnc(Nc3cccc(C(F)(F)F)c3)n2)c1 [Compound 103]	100%	38%	–	–
FC(F)C(F)(F)Oc1ccc(Nc2ncnc(N/N=C/c3cccc(C(F)(F)F)c3)n2)cc1 [Compound 104]	88%	50%	–	–
